# Measured values published in ChEMBL document CHEMBL2074227, “Antiestrogens and steroid hormones: substrates of the human P-glycoprotein” (Biochem Pharmacol, 1994).
# Biological target: ATP-dependent translocase ABCB1 (Homo sapiens, UniProt P08183)
# Assay: TP_TRANSPORTER: ATP hydrolysis in MDR1-expressing Sf9 cells
# Type: functional
# ATP-dependent translocase ABCB1, sequence (P08183 whole entry): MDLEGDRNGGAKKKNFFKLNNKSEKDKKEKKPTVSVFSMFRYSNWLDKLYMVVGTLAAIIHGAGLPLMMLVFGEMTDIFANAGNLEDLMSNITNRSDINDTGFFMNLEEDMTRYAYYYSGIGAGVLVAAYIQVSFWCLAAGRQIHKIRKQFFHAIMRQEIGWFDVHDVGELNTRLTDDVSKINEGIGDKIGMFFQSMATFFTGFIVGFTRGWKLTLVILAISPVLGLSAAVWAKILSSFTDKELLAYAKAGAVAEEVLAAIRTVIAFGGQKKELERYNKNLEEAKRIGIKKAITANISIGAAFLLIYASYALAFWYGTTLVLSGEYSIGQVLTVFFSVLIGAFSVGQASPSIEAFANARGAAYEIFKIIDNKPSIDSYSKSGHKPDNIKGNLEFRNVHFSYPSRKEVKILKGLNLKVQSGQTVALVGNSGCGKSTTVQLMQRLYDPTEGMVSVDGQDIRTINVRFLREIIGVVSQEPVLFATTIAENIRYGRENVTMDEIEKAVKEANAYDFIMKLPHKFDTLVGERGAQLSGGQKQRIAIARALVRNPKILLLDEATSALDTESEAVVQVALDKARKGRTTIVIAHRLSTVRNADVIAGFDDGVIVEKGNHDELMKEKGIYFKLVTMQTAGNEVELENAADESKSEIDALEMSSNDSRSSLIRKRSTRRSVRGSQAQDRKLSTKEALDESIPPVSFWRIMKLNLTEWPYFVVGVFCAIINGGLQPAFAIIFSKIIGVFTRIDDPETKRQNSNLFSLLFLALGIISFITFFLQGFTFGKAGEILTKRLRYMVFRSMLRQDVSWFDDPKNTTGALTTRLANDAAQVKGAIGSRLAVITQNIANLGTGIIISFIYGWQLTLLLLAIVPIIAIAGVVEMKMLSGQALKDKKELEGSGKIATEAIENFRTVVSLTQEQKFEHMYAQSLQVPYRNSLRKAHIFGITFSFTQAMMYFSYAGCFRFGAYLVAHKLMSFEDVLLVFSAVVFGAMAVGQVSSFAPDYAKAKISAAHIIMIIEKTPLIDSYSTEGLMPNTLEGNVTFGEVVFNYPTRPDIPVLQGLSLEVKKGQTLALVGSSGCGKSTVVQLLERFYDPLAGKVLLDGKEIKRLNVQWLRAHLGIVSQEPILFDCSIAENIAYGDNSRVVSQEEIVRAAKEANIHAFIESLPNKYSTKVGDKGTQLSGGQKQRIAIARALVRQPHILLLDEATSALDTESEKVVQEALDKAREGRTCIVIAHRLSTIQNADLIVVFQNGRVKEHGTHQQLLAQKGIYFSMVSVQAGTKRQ
row,Activity,SMILES
1,substrate [+],CC/C(=C(\c1ccccc1)c1ccc(OCCN)cc1)c1ccccc1 [DESMETHYL TAMOXIFEN]
2,substrate [+],C[C@]12CC[C@@H]3c4ccc(O)cc4CC[C@H]3[C@@H]1CC[C@@H]2O [ESTRADIOL]
3,substrate [+],C[C@]12C[C@H](O)[C@H]3[C@@H](CCC4=CC(=O)CC[C@@]43C)[C@@H]1CC[C@@H]2C(=O)CO [CORTICOSTERONE]
4,substrate [+],CCN(CC)CCOc1ccc(C(=C(Cl)c2ccccc2)c2ccccc2)cc1 [CLOMIPHENE]
5,substrate [+],CC/C(=C(/c1ccc(OCCN(C)C)cc1)c1cccc(O)c1)c1ccccc1 [DROLOXIFENE]
6,substrate [+],COc1ccc2c(c1)CCC(c1ccccc1)=C2c1ccc(OCCN2CCCC2)cc1 [NAFOXIDINE]
7,substrate [+],CC/C(=C(/CC)c1ccc(O)cc1)c1ccc(O)cc1 [DIETHYLSTILBESTROL]

row,SMILES,Activity
1,CCC(=C(c1ccc(O)cc1)c1ccc(OCCN(C)C)cc1)c1ccccc1,substrate [+]
2,CN(C)CCOc1ccc(/C(=C(/CCCl)c2ccccc2)c2ccccc2)cc1 [TOREMIFENE],substrate [+]
